{
  "source": "patent US9458507B1",
  "about": "“Antipsychotic treatment based on SNP genotype” (Vanda Pharmaceuticals, Inc., priority 2007, dated 2016)",
  "key": {"[1]": {"tested_on": "patients with diagnoses of schizophrenia", "assay": "randomized, double-blind, placebo- and ziprasidone-controlled, 28-day study of iloperidone with whole genome association study; change in PANSS-T by SNP genotype", "assay_type": "in vivo, human", "conditions": "for mean of change in PANSS-T: iloperidone group, MMRM analysis; for Odds Ratio of Improvement ≧ 20% in PANSS-T: iloperidone-treated patients, LOCF data", "experimental": "The clinical trial evaluated the efficacy of iloperidone in treating patients with diagnosed schizophrenia.\nPatients 18 to 65 years of age with diagnoses of schizophrenia according to the Diagnostic and Statistical Manual of Mental Disorders, 4th Edition were eligible to participate in a randomized, double-blind, placebo- and ziprasidone-controlled, 28-day study of the efficacy and safety of iloperidone. Patients were randomly assigned to iloperidone 12 mg twice a day, ziprasidone 80 mg twice a day (active control), or placebo. The primary efficacy variable was change from baseline to the last scheduled observation in Positive and Negative Syndrome Scale total score (PANSS-T) using the data from the short-term, double-blind phase. A secondary objective was to identify genetic markers predictive of response to iloperidone.\nBlood samples were collected, and DNA was extracted from 432 of 457 patients who consented to the optional WGAS, including 218 patients administered iloperidone and 102 administered placebo.\nTo independently discover and confirm biomarkers of iloperidone efficacy, patients administered iloperidone were randomly separated and genotyped for the WGAS into two groups (Group 1 (discovery phase) and Group 2 (confirmatory phase)) of equal size. PROC SURVEYSELECT (SAS Institute, Cary, N.C.) was used to stratify the groups to have approximately equal numbers of patients of each race and each sex.\nIn Group 1, each SNP was tested for potential association between genotype and change in PANSS-T for patients in the low 30% and the high 30% extremes of the distribution of Day 28 last-observation-carried-forward (LOCF) data. Analysis was performed using a truncated nonparametric measure analysis of variance (ANOVA), based on the Kruskal-Wallis test, with genotypes as the grouping variables. Based on a significant omnibus test and ad hoc contrasts, the results that produced the most parsimonious genetic model (e.g., homozygous for one allele vs. all other genotypes (e.g., AA vs. AB and BB), heterozygous vs. homozygous genotypes (AB vs. AA and BB)) dictated the genetic model that was tested in the confirmatory phase. For ease of global description, given that each SNP might have a different parsimonious model, the genotypes of all SNPs associated with positive iloperidone response were referred to as genotype class C1, and the remaining genotypes for that SNP were referred to as genotype class C2. If no parsimonious genetic model was obtained for a SNP, it was not tested further. Only the subset of 100 SNPs with the lowest P values for the contrasts that defined C1 and C2 was tested in the confirmatory phase.\nTwo separate methods were applied. LOCF data for PANSS-T at Day 28 were used in a one-way ANOVA of each SNP, testing each genotype class against the class of the other two genotypes combined. Results from the ANOVA dictated the parsimonious genetic model to be used for additional testing. Mixed Model Repeated Measures (MMRM) analysis was subsequently conducted using the parsimonious genetic model of each SNP in the MMRM model, as used for the analysis of the clinical trial results. In the MMRM analysis, only the best genetic model of each SNP, as determined in the ANOVA LOCF data analysis, was used.\nThree analyses were performed. Analysis 1 was a two-phase approach in which DNA samples were separated into two groups. The first group consisted of 50% of the samples for a discovery phase in which only the top 30% and the bottom 30% of the change in PANSS-T (LOCF data) were used, and the second was a hold-out group consisting of the other 50% for a confirmatory phase. Only the 100 SNPs with the lowest P values in the discovery phase were subsequently tested.\nAnalysis 2 was an ANOVA of LOCF data for all iloperidone-treated patients in a single-phase approach.\nAnalysis 3 was an MMRM analysis of all patients using the most parsimonious genetic model of each SNP. […]"}, "5-HT, receptor": {"biological_target": "5-HT, receptor (Homo sapiens, UniProt P34969)", "sequence (P34969 whole entry)": "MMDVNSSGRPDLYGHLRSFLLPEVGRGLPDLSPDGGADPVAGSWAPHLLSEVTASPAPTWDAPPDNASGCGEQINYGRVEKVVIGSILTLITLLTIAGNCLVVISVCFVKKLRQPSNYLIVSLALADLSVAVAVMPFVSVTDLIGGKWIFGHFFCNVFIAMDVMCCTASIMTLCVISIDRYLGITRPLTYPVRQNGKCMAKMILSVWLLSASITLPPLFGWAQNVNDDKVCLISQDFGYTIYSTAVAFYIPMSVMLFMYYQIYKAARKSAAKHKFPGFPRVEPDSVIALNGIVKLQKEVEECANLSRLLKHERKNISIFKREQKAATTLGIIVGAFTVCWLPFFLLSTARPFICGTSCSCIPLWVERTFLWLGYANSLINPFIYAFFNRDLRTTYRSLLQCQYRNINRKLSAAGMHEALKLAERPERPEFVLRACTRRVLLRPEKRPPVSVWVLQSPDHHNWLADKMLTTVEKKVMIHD", "conditions": "cited from earlier work"}},
  "data": [
    {"smiles": "COc1cc(C(C)=O)ccc1OCCCN1CCC(c2noc3cc(F)ccc23)CC1", "note": "[iloperidone, 1-[4-[3-[4-(6-flouro-1,2-benzisoxazol-3-yl)-1-piperidinyl]propoxy]-3-methoxyphenyl] ethanone]", "values": [
      {"measurement": "mean of change in PANSS-T", "setting": "[1]; rs875326 (TNR) genotype non-AG (homozygotes, highest response class)", "value": "−16.39 (±4.35)"},
      {"measurement": "Odds Ratio of Improvement ≧ 20% in PANSS-T", "setting": "[1]; rs875326 (TNR) non-AG vs AG", "value": 3.57},
      {"measurement": "Odds Ratio of Improvement ≧ 20% in PANSS-T", "setting": "[1]; rs2513265 (GRIA4) non-TT vs TT", "value": 2.43},
      {"measurement": "Odds Ratio of Improvement ≧ 20% in PANSS-T", "setting": "[1]; rs4528226 (NUDT9P1) GT vs non-GT", "value": 3.00},
      {"measurement": "mean of change in PANSS-T", "setting": "[1]; rs4528226 (NUDT9P1) genotype GT (highest response class)", "value": "−18.73 (±3.99)"},
      {"measurement": "Odds Ratio of Improvement ≧ 20% in PANSS-T", "setting": "[1]; rs7837682 (GRFA2) AA vs non-AA", "value": 2.95},
      {"measurement": "mean of change in PANSS-T", "setting": "[1]; rs7837682 (GRFA2) genotype AA (highest response class)", "value": "−15.95 (±4.23)"},
      {"measurement": "Odds Ratio of Improvement ≧ 20% in PANSS-T", "setting": "[1]; rs9643483 (XKR4) non-GG vs GG", "value": 3.42},
      {"measurement": "Odds Ratio of Improvement ≧ 20% in PANSS-T", "setting": "[1]; rs11851892 (NPAS3) non-GG vs GG", "value": 2.74},
      {"measurement": "improvement in PANSS-T greater than the mean response of all iloperidone-treated patients", "setting": "[1]; rs11851892 non-GG genotype vs all iloperidone-treated patients", "value": 68, "unit": "%"},
      {"measurement": "affinity for the 5-HT, receptor", "setting": "5-HT, receptor", "value": "high affinity"}
    ]}
  ]
}
